{
  "source": "patent US20250223559A1",
  "about": "“AXIOLOID: A STEM CELL-BASED MODEL OF HUMAN AXIAL DEVELOPMENT” (KYOTO UNIVERSITY, priority 2022, published 2025)",
  "tested_on": "human Axioloids",
  "experiment": "scRNA-seq analysis of Axioloids (clusters, marker genes, differentially expressed genes)",
  "format": "cell-based",
  "procedure": "Axioloids were collected into wells of a 96-well plate and washed three times by transferring to another well filled with 0.1% BSA (SIGMA) in HBSS(-). Axioloids of the desired stage and number were then transferred to another well filled with 100 μl of enzyme P solution of the Neural Tissue Dissociation Kit (P) (Miltenyi Biotec) and incubated at 37° C. for 10 minutes. After adding 100 μl of 0.1% BSA in HBSS(-) Axioloids were dissociated by pipetting with an uncut P200 tip 20 times. The dissociated cells were filtered through Flowmi Cell Strainers with […] porosity (Merck) into a BSA-coated 2 ml tube (Eppendorf). Cells were washed twice in 1% BSA in HBSS(-) with centrifugation steps at 400×g for 6 minutes at room temperature. Cells were then resuspended in 1% BSA in HBSS(-) using a BSA-coated uncut-P200 tip and the concentration of the cell suspension was determined with hemocytometer. The cell suspension was subjected to library preparation using Chromium Next GEM Single Cell 3' Kit v3.1 (10× Genomics), aiming for a target cell recovery of 5000-10000. Library preparation was preformed following the instructions provided by the manufacturer 10X Genomics (CG000315 Rev B). The libraries were sequenced with NovaSeq 6000 Sequencing System (Illumina) using NovaSeq 6000 SP Reagent Kit v1.5 (100 Cycles) (Illumina, #20028401) and NovaSeq 6000 S1 Reagent Kit v1.5 (100 Cycles) (Illumina, #20028319) with the paired-end mode as described in the instructions by 10X Genomics (CG000315 Rev B). scRNA-seq data were first mapped to the human reference genome (hg38) to make matrices of UMI count for each gene and each cell using Cell Ranger (10X Genomics, version 6.0.1). Putative doublet clusters were removed using Scrublet (version 0.2.3) with the expected_doublet_rate set as 0.06^64. Then, the count data were imported into the Suerat package (version 4.0.3)^65 for the downstream analysis. […] The cell cycle scores and cell cycle phases were then determined as described before^66. […]",
  "data": [
    {"smiles": "CC1=C(/C=C/C(C)=C/C=C/C(C)=C/C=O)C(C)(C)CCC1", "note": "[RAL, all trans-Retinal]", "values": [
      {"measurement": "segregation of SM and TB clusters", "setting": "MG with vs without RA or RAL, 96 h and 120 h", "result": "clear segregation of the SM and TB clusters"},
      {"measurement": "expression of TCF15, MEOX1, PAX3, PBX1, ZIC3, NR2F1, MEIS2", "setting": "MG-embedded, exposed to RAL/RA", "result": "up-regulated"},
      {"measurement": "MG-associated DEGs in SM (EMT genes, SFRP1, DKK1, FST, ID2, TFC15, PAX3)", "setting": "addition of RA or RAL to MG", "result": "attenuated"}
    ]}
  ]
}
